Source: US20050107386A1, “Methods of treating diseases and disorders by targeting multiple kinases” (priority 2003, published 2005)

Experiments:
Type in all cases: biochemical
CDK7/cyclinH/MAT1 = CDK7/cyclinH/MAT1 (Homo sapiens, UniProt P50613); test: CDK7/cyclinH/MAT1 kinase assay; details: 3 μM; percent of control kinase activity
Description: (§1) Six compounds (presumptive single agents) were tested against a panel of 50 kinases. The results are presented in Table 2; numbers for each kinase indicate the percent of control kinase activity in the presence of a 3μM concentration of the indicated agent.
(§2) Agents that target two or more different kinases are useful in the methods of the invention as described elsewhere herein. Such compounds may be identified, and their effect on certain kinases may be identified, using the assays briefly described below in Examples 4-83. Each of these assays was carried out as described in Davies et al., Biochem. J., 351:95-105 (2000). All assays were carried out at 10 μM ATP unless otherwise noted.
In a final reaction volume of 25 μl, CDK7/cyclinH/MAT1 (h) (5-10 mU) is incubated with 8 mM MOPS pH 7.0, 0.2 mM EDTA, 500 μM peptide, 10 mM MgAcetate and [γ-^33P-ATP] [specific activity approx. 500 cpm/pmol, concentration as required). The reaction is initiated by the addition of Mg^2+ [γ-33 P-ATP]. After incubation for 40 minutes at room temperature, the reaction is stopped by the addition of 5 μl of a 3% phosphoric acid solution. 10 μl of the reaction is then spotted onto a P30 filtermat and washed three times for 5 minutes in 75 mM phosphoric acid and once in methanol prior to drying and scintillation counting.

CSK(h) = CSK(h) (Homo sapiens, UniProt P41240); test: CSK(h) kinase assay; details: 3 μM; percent of control kinase activity
Description: as §1, §2
(§3) In a final reaction volume of 25 μl, CSK (h) (5-10 mU) is incubated with 50 mM Tris pH 7.5, 0.1 mM EGTA, 0.1 mM NaVanadate, 0.1% β-mercaptoethanol, 0.1 mg/ml poly(Glu, Tyr) 4:1, 10 mM MnCl2, 10 mM MgAcetate and [γ-^33P-ATP] (specific activity approx. 500 cpm/pmol, concentration as required). The reaction is initiated by the addition of Mg^2+ [γ-^33P-ATP]. After incubation for 40 minutes at room temperature, the reaction is stopped by the addition of 5 μl of a 3% phosphoric acid solution. 10 μl of the reaction is then spotted onto a Filtermat A and washed three times for 5 minutes in 75 mM phosphoric acid and once in methanol prior to drying and scintillation counting.

PDGFRβ(h) = PDGFRβ(h) (Homo sapiens, UniProt P09619); test: PDGFRβ(h) kinase assay; details: 3 μM; percent of control kinase activity
Description: as §1, §2
as §3, with “μl, PDGFRβ” for “μl, CSK”, “with 8” for “with 50”, “mM MOPS” for “mM Tris”, “pH 7.0, 0.2” for “pH 7.5, 0.1”, “mM EDTA,” for “mM EGTA, 0.1 mM NaVanadate, 0.1% β-mercaptoethanol,”

PKA(h) = PKA(h) (Homo sapiens, UniProt P17612); test: PKA(h) kinase assay; details: 3 μM; percent of control kinase activity
Description: as §1, §2
(§4) In a final reaction volume of 25 μl, PKA(h) (5-10 mU) is incubated with 8 mM MOPS pH 7.0, 0.2 mM EDTA, 30 μM LRRASLG (Kemptide; SEQ ID NO:10), 10 mM MgAcetate and [γ-^33P-ATP] (specific activity approx. 500 cpm/pmol, concentration as required). The reaction is initiated by the addition of Mg^2+ [γ-^33P-ATP]. After incubation for 40 minutes at room temperature, the reaction is stopped by the addition of 5 [Il of a 3% phosphoric acid solution. 10 μl of the reaction is then spotted onto a P30 filtermat and washed three times for 5 minutes in 50 mM phosphoric acid and once in methanol prior to drying and scintillation counting.

SGK(h) = molecular target: T1, SGK(h) (Homo sapiens, UniProt O00141); test: SGK(h) kinase assay; details: 3 μM; percent of control kinase activity
T1 sequence (O00141 1-431): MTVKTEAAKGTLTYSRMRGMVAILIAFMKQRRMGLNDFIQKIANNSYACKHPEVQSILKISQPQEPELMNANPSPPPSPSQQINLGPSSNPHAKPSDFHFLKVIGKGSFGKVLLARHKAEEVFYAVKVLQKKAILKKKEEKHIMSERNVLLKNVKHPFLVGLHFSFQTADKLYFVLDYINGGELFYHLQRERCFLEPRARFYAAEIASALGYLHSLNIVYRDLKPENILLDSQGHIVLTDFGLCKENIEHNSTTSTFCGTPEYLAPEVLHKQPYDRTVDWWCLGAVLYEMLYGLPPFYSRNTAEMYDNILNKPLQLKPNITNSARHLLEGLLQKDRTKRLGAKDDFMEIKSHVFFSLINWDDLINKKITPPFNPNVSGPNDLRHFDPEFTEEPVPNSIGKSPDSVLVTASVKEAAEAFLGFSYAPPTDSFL
Description: as §1, §2
as §4, with “μl, SGK(h)” for “μl, PKA(h)”, “μM […] (SEQ” for “μM LRRASLG (Kemptide; SEQ”, “ID NO:2),” for “ID NO:10),”, “of Mg^2+[γ-^33P-ATP].” for “of Mg^2+ [γ-^33P-ATP].”, “5 μl” for “5 [Il”, “in 75” for “in 50”

panel of 50 kinases = test: Panel of 50 kinases (Table 2), count of inhibited kinases; details: compared to a no-compound control; 3 μM
Description: as §1
CC006 (5-(5-Cyclopentyl-1H-[1,2,4]triazol-3-yl)-3-(4-fluoro-phenyl)-1H-indazole) and CC007 (3-(5-(1H-1,2,4-triazol-3-yl)(1H-indazol-3-yl))phenyl-N-cyclopentylcarboxamide) were included as controls.

Chain of PDGFRβ(h) (P09619 33-1106): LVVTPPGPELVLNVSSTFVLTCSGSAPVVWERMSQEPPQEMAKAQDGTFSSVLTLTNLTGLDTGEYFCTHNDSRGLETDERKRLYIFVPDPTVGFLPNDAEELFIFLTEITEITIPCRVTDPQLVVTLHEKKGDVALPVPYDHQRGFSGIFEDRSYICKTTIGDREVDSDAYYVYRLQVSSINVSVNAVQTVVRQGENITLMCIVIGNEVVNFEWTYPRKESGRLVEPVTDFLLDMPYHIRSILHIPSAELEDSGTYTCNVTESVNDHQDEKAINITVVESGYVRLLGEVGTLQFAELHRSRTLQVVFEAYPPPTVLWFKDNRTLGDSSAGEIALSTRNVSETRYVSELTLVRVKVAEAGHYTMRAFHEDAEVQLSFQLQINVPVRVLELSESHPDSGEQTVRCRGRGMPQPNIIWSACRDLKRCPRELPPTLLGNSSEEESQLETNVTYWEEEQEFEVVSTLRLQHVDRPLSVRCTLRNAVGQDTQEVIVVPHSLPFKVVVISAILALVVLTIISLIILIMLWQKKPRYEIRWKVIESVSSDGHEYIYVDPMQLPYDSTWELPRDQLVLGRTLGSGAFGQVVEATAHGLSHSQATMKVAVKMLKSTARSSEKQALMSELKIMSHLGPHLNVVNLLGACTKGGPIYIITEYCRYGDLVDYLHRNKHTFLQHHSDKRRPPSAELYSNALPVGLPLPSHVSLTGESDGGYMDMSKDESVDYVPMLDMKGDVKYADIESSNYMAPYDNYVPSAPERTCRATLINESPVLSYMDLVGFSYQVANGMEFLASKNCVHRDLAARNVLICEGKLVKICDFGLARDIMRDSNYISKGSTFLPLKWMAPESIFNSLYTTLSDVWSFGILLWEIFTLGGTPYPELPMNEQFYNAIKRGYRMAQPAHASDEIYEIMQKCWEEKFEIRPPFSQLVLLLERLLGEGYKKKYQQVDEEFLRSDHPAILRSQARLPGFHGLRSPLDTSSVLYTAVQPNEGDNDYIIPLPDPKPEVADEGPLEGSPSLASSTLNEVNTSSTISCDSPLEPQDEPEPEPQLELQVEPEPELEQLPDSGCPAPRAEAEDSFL
Chain of CDK7/cyclinH/MAT1 (P50613 whole entry): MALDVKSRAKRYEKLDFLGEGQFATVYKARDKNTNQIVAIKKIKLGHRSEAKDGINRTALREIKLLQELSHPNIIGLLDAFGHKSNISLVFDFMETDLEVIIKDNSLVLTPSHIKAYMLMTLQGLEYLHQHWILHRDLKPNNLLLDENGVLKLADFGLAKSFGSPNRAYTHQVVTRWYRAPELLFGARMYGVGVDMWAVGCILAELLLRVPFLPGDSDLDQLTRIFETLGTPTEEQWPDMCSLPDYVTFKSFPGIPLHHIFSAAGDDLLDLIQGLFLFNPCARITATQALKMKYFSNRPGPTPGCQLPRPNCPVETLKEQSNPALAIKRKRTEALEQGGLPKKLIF
Chain of CDK7/cyclinH/MAT1 (P51946 whole entry partner): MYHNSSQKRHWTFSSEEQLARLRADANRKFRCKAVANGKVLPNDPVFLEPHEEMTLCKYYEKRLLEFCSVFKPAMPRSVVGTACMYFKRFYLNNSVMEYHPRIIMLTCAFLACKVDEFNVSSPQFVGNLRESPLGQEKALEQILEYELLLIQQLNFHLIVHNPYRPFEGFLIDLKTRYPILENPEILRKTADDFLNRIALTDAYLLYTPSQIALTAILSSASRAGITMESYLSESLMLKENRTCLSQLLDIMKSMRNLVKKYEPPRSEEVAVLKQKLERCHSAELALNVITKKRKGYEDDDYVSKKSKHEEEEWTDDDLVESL
Chain of CDK7/cyclinH/MAT1 (P51948 whole entry partner): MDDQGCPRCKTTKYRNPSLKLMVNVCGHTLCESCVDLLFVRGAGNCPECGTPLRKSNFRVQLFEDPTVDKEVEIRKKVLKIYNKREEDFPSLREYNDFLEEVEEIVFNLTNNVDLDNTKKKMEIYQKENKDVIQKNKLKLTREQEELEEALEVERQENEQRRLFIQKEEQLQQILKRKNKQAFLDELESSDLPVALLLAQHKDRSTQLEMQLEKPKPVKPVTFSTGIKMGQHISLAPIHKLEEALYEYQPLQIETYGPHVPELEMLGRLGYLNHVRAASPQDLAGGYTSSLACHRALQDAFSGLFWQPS

Inhibitory activity (% of control), CDK7/cyclinH/MAT1 (CDK7/cyclinH/MAT1) | Inhibitory activity (% of control), CSK(h) (CSK(h)) | Inhibitory activity (% of control), PDGFRβ(h) (PDGFRβ(h)) | Inhibitory activity (% of control), PKA(h) (PKA(h)) | Inhibitory activity (% of control), SGK(h) (SGK(h)) | SMILES | number of kinases listed in Table 2 whose activity is inhibited by more than 95% (panel of 50 kinases)
 |  |  |  |  | CC(C)Cc1nc(-c2ccc3[nH]nc(-c4ccc5cc(OCCN6CCCC6)ccc5c4)c3c2)n[nH]1 [CC002, 5-(5-Isobutyl-1H-[1,2,4]Triazol-3-yl)-3-[6-(2-Pyrrolidin-1-yl-Ethoxy)-Naphthalen-2-yl]-1H-Indazole] | 29
19 % of control | 123 % of control | 91 % of control | 91 % of control | 33 % of control | CC(C)(C)Cc1nc(-c2ccc3[nH]nc(-c4ccc5cc(OCc6ccccn6)ccc5c4)c3c2)n[nH]1 [CC004, 5-[5-(2,2-Dimethyl-propyl)-1H-[1,2,4]triazol-3-yl]-3-[6-(pyridine-2-ylmethoxy)-naphthalen-2-yl]-1H-indazole] | 16
7 % of control | 88 % of control | 20 % of control | 50 % of control | 4 % of control | CCN1CCC[C@H]1COc1ccc2cc(-c3n[nH]c4ccc(-c5nc(CC(C)(C)C)n[nH]5)cc34)ccc2c1 [CC005, 2-[((2s)-1-ethylpyrrolidin-2-yl)methoxy]-6-{5-[3-(2,2-Dimethylpropyl)(1H-1,2,4,-triazol-5-yl)](1H-indazol-3-yl)}naphthalene] | 

SMILES | Inhibitory activity (% of control), CDK7/cyclinH/MAT1 (CDK7/cyclinH/MAT1) | Inhibitory activity (% of control), CSK(h) (CSK(h)) | Inhibitory activity (% of control), PDGFRβ(h) (PDGFRβ(h)) | Inhibitory activity (% of control), PKA(h) (PKA(h)) | Inhibitory activity (% of control), SGK(h) (SGK(h)) | number of kinases listed in Table 2 whose activity is inhibited by more than 95% (panel of 50 kinases)
COc1ccc2cc(-c3n[nH]c4ccc(-c5n[nH]c(CN6CCOCC6)n5)cc34)ccc2c1 [CC001, 3-(6-Methoxynaphthalen-2-yl)-5-(5-Morpholin-4-Ylmethyl-1H-[1,2,4]Triazol-3-yl)-1H-Indazole] | 13 % of control | 95 % of control | 94 % of control | 60 % of control | 56 % of control | 16
